Experimental findings from US20240358862A1, “Synthesis Method and Application of a Near-infrared Probe GGa-ICG specific binding to PSCA” (Guangzhou Shiyun Biotechnology Co., Ltd, priority 2022, published 2024) are described below.

A value given as a limit tells only on which side of the number the result lay.

Data set [1] concerns the target T1, PSCA (Homo sapiens, UniProt O43653).
T1 sequence (O43653 12-83): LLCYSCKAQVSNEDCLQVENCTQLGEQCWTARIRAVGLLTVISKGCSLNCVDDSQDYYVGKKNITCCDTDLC
Nature of the data set: Pull-down assay. The format is binding. Further details: Membrane proteins of PC-3 cells were extracted; endogenous in cells; host or cells: PC-3. The conditions noted are these: PC-3 membrane proteins, Western blotting with anti-PSCA antibody. The method, then:
Membrane proteins of PC-3 cells were extracted and incubated with agarose beads, agarose-conjugated GGa-ICG, or an agarose-conjugated library. The resulting pull-down mixture containing proteins was analyzed by Western blotting using a PSCA-specific antibody. The captured proteins were analyzed by SDS-PAGE gel and Coomassie blue staining, followed by Western blotting using an anti-PSCA antibody.

The nature of data set [2]: Fluorescence stability detection. The format is physicochemical. The method, then: Stability testing was divided into two groups: 1) stability testing under excitation wavelength and 2) stability testing of GGa-ICG under visible light. Excitation wavelength of 780 nm (GGa-ICG, ssDNA-ICG, and ICG) and visible light were used to excite the fluorescence probe GGa-ICG. Fluorescence detection was performed, and the changes in fluorescence intensity were recorded using a fluorescence spectrophotometer.

The test system of data set [3] is RWPE-1, MCF2, Hela cells. The data set can be described thus: Cell binding by fluorescence microscope / flow cytometry, non-tumour prostate and other cells. The format is cell-based, human. As to conditions: 200 nM probe. The method, then:
(§1) Therefore, 200 nM of GGa-ICG and ssDNA-ICG were used to confirm their specific binding. The method is as follows: • a. The human prostate cancer cell lines PC-3, DU145, LNCaP, 22RV1, immortalized normal human prostate epithelial cell line RWPE1, and human cervical cancer cell line Hela, as well as MCF7 cells obtained from the American Type Culture Collection (ATCC), were used in this study. All cell lines were cultured at 37° C. and 5% CO2 in a humidified environment. […]
(§2) After the cells reach a confluency of over 80%, they were passaged and grown for 24-48 hours until they reached a confluency of over 50%. They were then washed once with PBS (without Ca and Mg ions), twice with cold washing buffer, and incubated at room temperature (4° C. for the internalization inhibition group) for 30 minutes with the sample buffer containing near-infrared fluorescence probes GGa-ICG, ssDNA-ICG, and ICG to a final concentration of 200 nM (or as specified). The cells were observed under a fluorescence microscope or analyzed by flow cytometry after digestion with trypsin without EDTA. […]
Background: A flow cytometer gives signals particle by particle.

The subject of data set [4] is prostate cancer lesions (PC-3 xenograft). Nature of the data set: In vivo imaging in PC-3 mouse xenograft model. Details: species or system BALB/c nude mice. The method, then: Male BALB/c nude mice (BALB/c-nude) were purchased from Beijing SLAC Laboratory Animal Co., Ltd. Five-week-old nude mice were subcutaneously injected with 5×10^6 PC-3 cells on the back. The tumor was allowed to grow for 15 to 20 days until it reached a diameter of 0.5-1.5 cm. The BALB/c nude mice bearing tumors were anesthetized with sedatives and anesthetics. Once the mice were immobilized, a designated dose (0.1 mg, 0.5 mg, 1 mg, 2 mg per injection) of GGa-ICG or ssDNA-ICG was injected through the tail vein. At certain time points, fluorescent images of live mice were collected using the IVIS Lumina II in vivo imaging system. For ex vivo fluorescent experiments, tumor-bearing mice that were intravenously injected with GGa-ICG or ssDNA-ICG were euthanized by cervical dislocation 1 hour after injection under anesthesia. After dissection, organs including brain, liver, kidney, spleen, lung, heart, and tumor tissue were imaged using the IVIS Lumina II in vivo imaging system as described above.

Data set [5] has as its system PC-3 cells. The data set can be described thus: Affinity detection by flow cytometry. The conditions noted are these: PC3 cells, 0-500 nM, 37° C., read-out: dissociation constant. It counts as binding, human. The procedure:
To test the affinity of different GGa-ICG aptamers for PC-3 cells, aptamers at different concentrations (0, 10, 20, 50, 100, 200, 500 nM) are incubated with 2×10^5 cells at 37° C. After digestion into a cell suspension, flow cytometry was used for analysis. The average fluorescence intensity of the background was subtracted from that of each sample. The equilibrium dissociation constant (Kd) for aptamer-cell interactions is calculated using SigmaPlot software.

For data set [6], the system named is prostate cancer cell lines. The data set can be described thus: Cell binding by fluorescence microscope / flow cytometry. As to conditions: 200 nM probe. The format is cell-based, human. The method, then: as §1, §2
The mark [7] stands for this setting: doses of 0.1-2 mg/animal, tail vein.

As for “GGa-ICG: near-infrared probe: PSCA-binding nucleic acid aptamer GGa linked at 3′ to an ICG derivative dye (DNA TGCCACTACAGCTGGTTCGGTTTGGTGACTTCGTTCTTCGTTGTGGT; 3'-ICG dye, further chemistry not given here)”, the “pull-down of PSCA” value in data set [1] is on record as “easily pulled down”. For the same substance, the “time after which fluorescence was extinguished” value in data set [2] (after excitation at 780 nm) was 1 h. For the same substance, the “fluorescence quenching under visible light excitation” value in data set [2] (visible light, during the detection time) is listed as “did not exhibit fluorescence quenching”. Also, the “binding affinity to RWPE-1, MCF2, Hela cells” value in data set [3] is “significantly reduced binding affinity”. In addition, in data set [4] (setting [7]), the “time of optimal detection after injection” value lay in the range of 8 to 12 h and the “time until which detection lasted” value lay within 24 to 48 h. In addition, the “binding to prostate cancer lesions in vivo” value in data set [4] (intravenous injection, at 2, 4, and 8 hours) is “specifically bound”. Besides, in data set [4] (mouse, in vivo), the metabolism pathway entry is “partially metabolized via the liver and kidney pathways”. Moreover, the “time within which probe in the organs was essentially metabolized” value in data set [4] (organs of tumor-bearing mice) was at most 24 h. Moreover, the Kd in data set [5] came to 54.9 nM. In data set [6], the “binding affinity of PC3, VCap and LNCap cell lines relative to DU-145, 22RV1 cells” value is reported as “stronger”; the “specific binding to prostate cancer cell lines” value is reported as “could specifically bind”.
